Assay results as given in patent publication US6656709B1, “Methods of increasing the production of cobalamins using cob gene expression” (priority 1990, dated 2003).

Tests used:
[1] = system: crude extract of strain SC510 Rif^r; experiment: Enzymatic chelation with cobalt in crude extract of strain SC510 Rif^r; type: biochemical, Pseudomonas denitrificans; conditions: 7 mM ATP, 200 μM CoCl2
Protocol: A crude extract of strain SC510 Rif^r is obtained by sonication of wet cells (10 g) in 0.2 M Tris-HCl buffer pH 8.0 (20 ml), followed by removal of the cell debris by centrifugation for 1 h at 50,000×g. Proteins (1000 mg) of this extract are incubated for 1 h at 30° C. with carbon-14-labelled hydrogenobyrinic acid diamide (32 nmol; 50 μCi/μmol) in 0.2 M Tris-HCl buffer pH 8.0 (40 ml) containing 7 mM ATP and 200 μM CoCl2. The reaction is stopped by adding 1 M KH2PO4 (7.5 ml) and 0.3 M KCN (6 ml), followed by heating for 10 min at 80° C. […] To confirm that the product is indeed cobyrinic acid a,c-diamide, the product is purified by HPLC and then esterified in methanol containing 5% of sulphuric acid (18 h, 20° C.). […] It should be noted that, under similar incubation conditions in which the radioactive labelling is introduced, not into the hydrogenobyrinic acid a,c-diamide, but into the cobalt (using cobalt-57), cobalt-57-labelled cobyrinic acid a,c-diamide is biosynthesised and the same conclusions could be drawn.

[2] = molecular target: T1, Methanobacterium ivanovii SUMT (Methanobacterium ivanovii, UniProt P29564); experiment: Catalytic properties of purified M. ivanovii SUMT; type: biochemical
T1 construct: endogenous in cells; host or cells: Methanobacterium ivanovii DSM2611 (enzyme purified to homogeneity from the natural organism)
T1 sequence (P29564 2-231 limits assumed): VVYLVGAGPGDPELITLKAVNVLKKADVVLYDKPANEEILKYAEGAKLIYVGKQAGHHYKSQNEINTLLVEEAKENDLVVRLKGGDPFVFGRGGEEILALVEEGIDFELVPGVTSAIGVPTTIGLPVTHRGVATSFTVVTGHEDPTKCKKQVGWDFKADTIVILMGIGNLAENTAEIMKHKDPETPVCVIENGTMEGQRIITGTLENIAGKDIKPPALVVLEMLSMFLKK
Protocol: Methanobacterium ivanovii strain DSM2611 is cultured as described (Souillard et al., 1988). Wet cells (12 g) are obtained. The latter are resuspended in 0.1 M Tris-HCl buffer pH 7.6 (80 ml) containing 5 mM DTT and 1 mM EDTA, and sonicated for 1 h 30 min at 4° C. and then centrifuged for 1 h at 50,000 g. Free tetrapyrrole compounds are then cleared from the extract by passage through a small DEAE-Sephadex A25 column set up in the same buffer. The proteins precipitating at between 55 and 75% ammonium sulphate saturation are solubilised in a 0.1 M Tris-HCl pH 7.5, 0.5 mM DTT, 1.7 M ammonium sulphate buffer and injected onto a Phenyl-Superose HR 10/10 (Pharmacia France/SA) column eluted with a decreasing gradient (1.7 M to 0 M with respect to ammonium sulphate). The active fractions are passed through a Sephadex G-25 column equilibrated with 0.1 M Tris-HCl pH 7.5, 0.5 mM DTT, 25% glycerol buffer (buffer A), then injected onto a Mono Q HR 5/5 (Pharmacia France SA) column equilibrated with buffer A and eluted with a KCl gradient of 0 to 0.3 M; this step is repeated a second time under the same conditions. Gel permeation chromatography of the active fraction of the preceding step on Bio-Sil TSK-250 (BioRad France SA) enables a protein which is homogeneous in SDS-PAGE and in RP-HPLC (C-18 pBondapak) to be obtained. The different steps of purification, with their yield, as well as their purification factor, are described in the table below.
As shown in this table, the total purification factor is more than 4,500. Some properties of the pure enzyme have been studied according to methods already described (Blanche et al., 1989). This enzyme does indeed have SUMT activity, i.e. it does indeed catalyse the SAM-dependant transfer of two methyl groups at C-2 and at C-7 of uro'gen III.
The Vmax of M. ivanovii SUMT was determined. It is 1537 U/mg of proteins. This value is greater than that found for P. denitrificans SUMT, already determined under optimal conditions for the reaction (taking account of its inhibition by uro'gen III), 489 U/mg of proteins (Blanche et al., 1989).

[3] = molecular target: Pseudomonas denitrificans SUMT (Sinorhizobium sp, UniProt P21631); conditions: cited from earlier work
Pseudomonas denitrificans SUMT, sequence (P21631 whole entry): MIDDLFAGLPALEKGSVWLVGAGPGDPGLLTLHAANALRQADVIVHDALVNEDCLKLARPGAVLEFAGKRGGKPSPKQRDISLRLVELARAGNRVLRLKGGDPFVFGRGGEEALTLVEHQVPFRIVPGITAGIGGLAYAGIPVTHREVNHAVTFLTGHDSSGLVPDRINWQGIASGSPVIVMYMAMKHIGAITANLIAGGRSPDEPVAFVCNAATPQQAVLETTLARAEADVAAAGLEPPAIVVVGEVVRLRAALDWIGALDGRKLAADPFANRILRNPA

| Molecule | substrate for enzymatic chelation with cobalt [1] | inhibition by substrate ([2]; at concentrations below 20 μM) | Km ([2]; conditions of Blanche et al., 1989) [nM] | concentration above which inhibition by uro'gen III is shown [3] |
| --- | --- | --- | --- | --- |
| C/C1=C2N=C(/C=C3\N/C(=C(/C)C4=NC(C)(C5N=C1C(C)(CCC(=O)O)C5CC(=O)O)C(C)(CC(=O)O)C4CCC(=O)O)C(C)(CC(=O)O)C3CCC(=O)O)C(C)(C)C/2CCC(=O)O (stereo not shown) [hydrogenobyrinic acid] | not a substrate | – | – | – |
| uroporphyrinogen III [uro'gen III] | – | does not show inhibition by substrate | 52 | above 2 μM |
